Source: patent US6492381B1, “Tricyclic carbamate compounds useful for inhibition of G-protein function and for treatment of proliferative diseases” (Schering Corp., priority 1993, dated 2002)

Key:
[1] = target: T1, farnesyl protein transferase (FPT) (Rattus norvegicus, UniProt Q02293+Q04631); experiment: In vitro enzyme assay: inhibition of farnesyl protein transferase; format: biochemical; conditions: Ras-CVLS farnesylation, partially purified rat brain FPT; read-out: FPT IC50
T1 construct: were partially purified from rat brain by ammonium sulfate fractionation followed by Q-Sepharose; from tissue; host or cells: rat brain
Protocol: 1. In vitro enzyme assays: Inhibition of farnesyl protein transferase and geranylgeranyl protein transferase.
Human farnesyl protein transferase was also expressed in E. coli, using cDNA clones encoding both the α and β subunits. […] Two forms of val^12-Ha-Ras protein were prepared as substrates for these enzymes, differing in their carboxy terminal sequence. One form terminated in cysteine-valine-leucine-serine (Ras-CVLS) the other in cystein-valine-leucine-leucine (Ras-CVLL). Ras-CVLS is a substrate for the farnesyl protein transferase while Ras-CVLL is a substrate for geranylgeranyl protein transferase I. The cDNAs encoding these proteins were constructed so that the proteins contain an amino-terminal extension of 6 histidine residues. Both proteins were expressed in Escherichia coli and purified using metal chelate affinity chromatography. The radiolabelled isoprenyl pyrophosphate substrates, [^3H]farnesyl pyrophosphate and [^3H]geranylgeranyl pyrophosphate, were purchased from DuPont/New England Nuclear.
The reaction was allowed to proceed for 30 minutes at room temperature and then stopped with 0.5 ml of 4% sodium dodecyl sulfate (SDS) followed by 0.5 ml of cold 30% trichloracetic acid (TCA). Samples were allowed to sit on ice for 45 minutes and precipitated Ras protein was then collected on GF/C filter paper mats using a Brandel cell harvester. […] Percent inhibition was calculated relative to the DMSO vehicle control.

[2] = system: T24-BAG4 human bladder carcinoma cells expressing an activated H-ras gene; experiment: Cell Mat assay: inhibition of tumor cell growth; format: cell-based; conditions: Homo sapiens, tIC50
Protocol: (§1) Normal human HEPM fibroblasts were planted in 3.5 cm dishes at a density of 5×10^4 cells/dish in 2 ml growth medium, and incubated for 3-5 d to achieve confluence. Medium was aspirated from each dish and the indicator tumor cells, T24-BAG4 human bladder carcinoma cells expressing an activated H-ras gene, were planted on top of the fibroblast monolayer at a density of 2×10^3cells/dish in 2 ml growth medium, and allowed to attach overnight. Compound-induced colony inhibition was assayed by addition of serial dilutions of compound directly to the growth medium 24 h after tumor cell planting, and incubating cells for an additional 14 d to allow colony formation. Assays were terminated by rinsing monolayers twice with phosphate-buffered saline (PBS), fixing the monolayers with a 1% glutaraldehyde solution in PBS, then visualizing tumor cells by staining with X-Gal (Price, J., et al., Lineage analysis in the vertebrate nervous system by retrovirus-mediated gene transfer, Proc. Natl. Acad. Sci.84, 156-160(1987)). […] Both IC50 values were obtained by determining the density of tumor cells and mat cells by visual inspection and enumeration of cells per colony and the number of colonies under the microscope. The therapeutic index of the compound was quantitatively expressed as the ratio of mIC50/tIC50, with values greater than one indicative of tumor target specificity.

[3] = system: Normal human HEPM fibroblasts; experiment: Cell Mat assay: inhibition of normal cell growth; format: cell-based; conditions: Homo sapiens, Fibroblast, mIC50, normal cell monolayer
Protocol: as §1

[4] = system: C-f-1 [mouse fibroblast transformed with c-fos oncogene]; experiment: In vivo anti-tumor study, C-f-1 s.c. tumor; conditions: C-f-1 s.c. in athymic nu/nu mice, BID
Excerpt: (§2) In Vivo Anti-Tumor Studies
(§3) Tumor cells (5×10^5 to 8×10^6 of M27 [mouse Lewis lung carcinoma], A431 [human epidermal carcinoma] or SW620 [human colon adenocarcinoma (lymph node metastasis)]) are innoculated subcutaneously into the flank of 5-6 week old athymic nu/nu female mice. For the C-f-1 [mouse fibroblast transformed with c-fos oncogene] tumor model, 2 mm^3 tumor fragments are transplanted subcutaneously into the flank of 5-6 week old athymic nu/nu female mice. Tumor bearing animals are selected and randomized when the tumors are established. Animals are treated with vehicle (beta cyclodextran for i.p. or corn oil for p.o.) only or compounds in vehicle twice a day (BID) for 5 (1-5) or 7 (1-7) days per week for 2 (×2) or 4 (×4) weeks. The percent inhibition of tumor growth relative to vehicle controls are determined by tumor measurements.

[5] = system: SW620 [human colon adenocarcinoma (lymph node metastasis)]; experiment: In vivo anti-tumor study, SW620 s.c. tumor; parameters: species or system mouse; conditions: po
Excerpt: as §2, §3

CCOC(=O)N1CCC(C2(F)c3ccc(Cl)cc3CCc3cccnc32)CC1 (stereo not shown) [Compound 530.00]
IC50 [1]: 3.7 µM
IC50 [2]: 12.5 µM
IC50 [3]: 100 µM
% Inhibition (tumor growth relative to vehicle controls) ([4]; ip, 1-5, × 2): 17.8%
% Inhibition (tumor growth relative to vehicle controls) ([4]; po, 1-5, × 4): 69%
average % tumor inhibition ([5]; SW620, 100 MPK, 10/wk, ×4): 57%
% Inhibition (tumor growth relative to vehicle controls) ([5]; SW-620 s.c. in athymic nu/nu mice, BID, 1-5, × 4): 73%
